According to patent EP0298474B1, “Novel calcitonin derivative and salt thereof” (MITSUBISHI PETROCHEMICAL CO., LTD., priority 1987, dated 1992):
Positions of bridges follow the written chain, without caps; N, C: chain ends. Residues, ends and D or L forms follow the SMILES beside them.

Legend:
[1] = biological activity assay according to the method of Japanese Provisional Patent Publication No. 123500/1985; assay type: in vivo
Experimental: The crude (Oct¹, Cys(CA)⁷)-CCT obtained was dissolved in a 1 M acetic acid (5 mg/ml) and purified by the reverse phase high performance liquid chromatography. Chemcopack ODS-H (trade name, ø: 10 mm x 250 mm) column produced by Chemco Co. was used, with the eluents employed being water (100) - 10 % TFA (1) for the eluent A and water (40) -acetonitrile (60) - 10 % TFA (1) for the eluent B, and the elution was effected under the linear concentration gradient from the eluent A to the eluent B. Here, the numerals within bracckets represent volume ratios. The fraction corresponding to (Oct¹, Cys(CA)⁷)-CCT was collected and lyophilized to obtain 2.8 mg of white powder. The biological activity of the white powder obtained was assayed according to the method as described in Japanese Provisional Patent Publication No. 123500/1985. […]

[2] = stability test in solution (heat treatment, remaining peak area by reverse phase HPLC); assay type: physicochemical; settings: 0.1 M sodium citrate buffer (pH 6.0), 10 µg/ml, sealed tube at 80 °C for 24 hours; stated in words relative to Example 1
Experimental: The (Oct¹, Cys(CA)⁷)-CCT was dissolved in 0.1 M sodium citrate buffer (pH 6.0) to a concentration of 10 µg/ml. One ml of this solution was left to stand in a sealed tube at 80 °C for 24 hours. By analysis according to the reverse phase HPLC by use of the measurement conditions (1), the eluted peak area A of the remaining (Oct¹, Cys(CA)⁷)-CCT was determined. Similarly, the eluted peak area B of the (Oct¹, Cys(CA)⁷)-CCT in the sample solution not subjected to the heat treatment was determined, and the ratio of A to B (%) was defined as the index.

[3] = method of Japanese Provisional Patent Publication No. 123500/1985
[4] = stated in words relative to (Oct¹, Cys(CA)⁷)-CCT of Example 1

Row | Compound | biological activity [1, 3] [MRC U/mg] | biological activity [1, 4] | stability (ratio of A to B (%), remaining peak area) [2]
1 | CC(C)C[C@H](NC(=O)[C@H](CCCCN)NC(=O)CNC(=O)[C@H](CC(C)C)NC(=O)[C@@H](NC(=O)[C@@H]1CSSC[C@H](N)C(=O)N[C@@H](C)C(=O)N[C@@H](CO)C(=O)N[C@@H](CC(C)C)C(=O)N[C@@H](CO)C(=O)N[C@@H]([C@@H](C)O)C(=O)N1)C(C)C)C(=O)N[C@@H](CO)C(=O)N[C@@H](CCC(N)=O)C(=O)N[C@@H](CCC(=O)O)C(=O)N[C@@H](CC(C)C)C(=O)N[C@@H](Cc1c[nH]cn1)C(=O)N[C@@H](CCCCN)C(=O)N[C@@H](CC(C)C)C(=O)N[C@@H](CCC(N)=O)C(=O)N[C@H](C(=O)N[C@@H](Cc1ccc(O)cc1)C(=O)N1CCC[C@H]1C(=O)N[C@@H](CCCNC(=N)N)C(=O)N[C@H](C(=O)N[C@@H](CC(=O)O)C(=O)N[C@H](C(=O)NCC(=O)N[C@@H](C)C(=O)NCC(=O)N[C@H](C(=O)N1CCC[C@H]1C(N)=O)[C@@H](C)O)C(C)C)[C@@H](C)O)[C@@H](C)O [natural type CCT, reference compound] (H-CASLSTCVLGKLSQELHKLQTYPRTDVGAGTP-NH2; disulfide 1-7) | 4500 |  | 
2 | (Oct¹, Ala³, Cys(CA)⁷)-CCT | 6100 |  | 
3 | (Oct¹, Cys(Acm)⁷)-CCT | 5500 |  | 
4 | (Oct¹, Cys(Acm)⁷)-ECT | 5400 |  | 
5 | (Oct¹, Cys(CA)⁷)-CCT | 5400 | equal to that obtained in Example 1 | 
6 | (Oct¹, Cys⁷)-CCT |  | substantially equal to those of (Oct¹, Cys(CA)⁷)-CCT of Example 1 | substantially equal to those of (Oct¹, Cys(CA)⁷)-CCT of Example 1
7 | (Oct¹, Thr³, Cys(CA)⁷)-CCT | 7800 |  | 
8 | (pGlu¹, Cys(CA)⁷)-CCT |  | substantially equal to those of (Oct¹, Cys(CA)⁷)-CCT of Example 1 | substantially equal to those of (Oct¹, Cys(CA)⁷)-CCT of Example 1
